Data taken from patent US9708314B2, “Heterocyclic amide compound” (NISSAN CHEMICAL INDUSTRIES, LTD., priority 2013, dated 2017).

Columns and labels:
Type in all cases: in vivo
[1] = system: Echinochloa oryzacola Vasing.; experiment: Test Example 1: herbicidal activity, application before weed generation in submerged conditions; conditions: Application herbicide amount 320 g/ha; Seventeenth Table
How it was run: (§1)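 Rating, on a six-step scale from almost no effect (0) to almost completely withered (5), was made three weeks after pre-emergence treatment. Treatment was surface application to flooded pots at g/ha rates, with plants kept at 25° C. to 30° C.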

[2] = system: Monochoria vaginalis; experiment: as above; conditions: Application herbicide amount 320 g/ha; Seventeenth Table
How it was run: as §1

[3] = system: Scirpus juncoides; experiment: as above; conditions: Application herbicide amount 320 g/ha; Seventeenth Table
How it was run: as §1

[4] = system: transplanted Oryza sativa; experiment: Test Example 1: effect on crop, application before weed generation in submerged conditions; conditions: Application herbicide amount 320 g/ha; Seventeenth Table
How it was run: as §1

[5] = system: Cyperus difformis; experiment: Test Example 3: herbicidal effect by application to foliage (Wagner pot, water depth 0.1-0.5 cm); conditions: Nineteenth Table
How it was run: (§2)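 Seeds were sown in alluvial soil in Wagner pots, grown for 14 days at 25–30 °C, then sprayed uniformly on foliage with the emulsified compound diluted to a given rate per hectare. Injury was graded three weeks after treatment from 0 (≤5%) to 5 (≥90%).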

[6] = system: Echinochloa crus-galli var. crus-galli; experiment: as above; conditions: Nineteenth Table
How it was run: as §2

[7] = system: Leptochloa chinensis; experiment: as above; conditions: Nineteenth Table
How it was run: as §2

[8] = system: directly sowed Oryza sativa; experiment: Test Example 3: effect on crop by application to foliage (Wagner pot, water depth 0.1-0.5 cm); conditions: Nineteenth Table
How it was run: as §2

[9] = system: Stellaria media; experiment: Test Example 4: herbicidal effect by application to foliage (diluvial soil, plastic box); conditions: application to foliage, application herbicide amount 320 g/ha
How it was run: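 Emulsion-formulated compound, diluted to a predetermined g/ha dose, applied by small sprayer to leaves and stems of 14-day-old seedlings grown in sterilized diluvial soil. Effect rated on 0–5 herbicidal-ratio scale three weeks on.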

[10] = application herbicide amount 320 g/ha
[11] = application herbicide amount 400 g/ha

SMILES	A: Echinochloa oryzicola Vasing. (herbicidal effect grade) [1]	C: Monochoria vaginalis (herbicidal effect grade) [2]	B: Scirpus juncoides (herbicidal effect grade) [3]	a: transplanted Oryza sativa (effect on crop grade) [4]	E (Cyperus difformis) herbicidal ratio grade [5, 10]	H (Echinochloa crus-galli var. crus-galli) herbicidal ratio grade [6, 10]	D (Leptochloa chinensis) herbicidal ratio grade [7, 10]	b (directly sowed Oryza sativa) effect on crop grade [8, 10]	P (Stellaria media) herbicidal effect [9]	E (Cyperus difformis) herbicidal ratio grade [5, 11]	H (Echinochloa crus-galli var. crus-galli) herbicidal ratio grade [6, 11]	D (Leptochloa chinensis) herbicidal ratio grade [7, 11]	b (directly sowed Oryza sativa) effect on crop grade [8, 11]
Cc1nnc(NC(=O)c2ccc(C(F)(F)F)n3c(CS(C)(=O)=O)nnc23)o1 [1-037]	0 (Herbicidal ratio of 5% or less (almost no effect))	3 (Herbicidal ratio of 40% or more and less than 70%)	2 (Herbicidal ratio of 20% or more and less than 40%)	0 (Herbicidal ratio of 5% or less (almost no effect))	5 (Herbicidal ratio of 90% or more (almost completely withered))	5 (Herbicidal ratio of 90% or more (almost completely withered))	5 (Herbicidal ratio of 90% or more (almost completely withered))	2 (Herbicidal ratio of 20% or more and less than 40%)	4 (Herbicidal ratio of 70% or more and less than 90%)	–	–	–	–
COCCOCc1nnc2c(C(=O)Nc3nnc(C)o3)ccc(C(F)(F)F)n12 [1-019]	5 (Herbicidal ratio of 90% or more (almost completely withered))	4 (Herbicidal ratio of 70% or more and less than 90%)	3 (Herbicidal ratio of 40% or more and less than 70%)	2 (Herbicidal ratio of 20% or more and less than 40%)	5 (Herbicidal ratio of 90% or more (almost completely withered))	5 (Herbicidal ratio of 90% or more (almost completely withered))	5 (Herbicidal ratio of 90% or more (almost completely withered))	4 (Herbicidal ratio of 70% or more and less than 90%)	5 (Herbicidal ratio of 90% or more (almost completely withered))	–	–	–	–
Cc1nnc(NC(=O)c2ccc(C(F)(F)F)n3c(CC(=O)OC(C)C)nnc23)o1 [1-049]	5 (Herbicidal ratio of 90% or more (almost completely withered))	0 (Herbicidal ratio of 5% or less (almost no effect))	2 (Herbicidal ratio of 20% or more and less than 40%)	0 (Herbicidal ratio of 5% or less (almost no effect))	4 (Herbicidal ratio of 70% or more and less than 90%)	5 (Herbicidal ratio of 90% or more (almost completely withered))	4 (Herbicidal ratio of 70% or more and less than 90%)	1 (Herbicidal ratio of 5% or more and less than 20%)	4 (Herbicidal ratio of 70% or more and less than 90%)	–	–	–	–
Cc1nnc(NC(=O)c2ccc(C(F)(F)F)n3cnnc23)o1 [1-001]	3 (Herbicidal ratio of 40% or more and less than 70%)	2 (Herbicidal ratio of 20% or more and less than 40%)	2 (Herbicidal ratio of 20% or more and less than 40%)	0 (Herbicidal ratio of 5% or less (almost no effect))	4 (Herbicidal ratio of 70% or more and less than 90%)	5 (Herbicidal ratio of 90% or more (almost completely withered))	5 (Herbicidal ratio of 90% or more (almost completely withered))	0 (Herbicidal ratio of 5% or less (almost no effect))	4 (Herbicidal ratio of 70% or more and less than 90%)	–	–	–	–
Cc1nnc(NC(=O)c2ccc(C(F)(F)F)n3c(-c4ccc(F)cc4)nnc23)o1 [1-044]	5 (Herbicidal ratio of 90% or more (almost completely withered))	3 (Herbicidal ratio of 40% or more and less than 70%)	3 (Herbicidal ratio of 40% or more and less than 70%)	1 (Herbicidal ratio of 5% or more and less than 20%)	4 (Herbicidal ratio of 70% or more and less than 90%)	5 (Herbicidal ratio of 90% or more (almost completely withered))	4 (Herbicidal ratio of 70% or more and less than 90%)	3 (Herbicidal ratio of 40% or more and less than 70%)	4 (Herbicidal ratio of 70% or more and less than 90%)	–	–	–	–
CSCc1nnc2c(C(=O)Nc3nnc(C)o3)ccc(C(F)(F)F)n12 [1-030]	5 (Herbicidal ratio of 90% or more (almost completely withered))	3 (Herbicidal ratio of 40% or more and less than 70%)	3 (Herbicidal ratio of 40% or more and less than 70%)	0 (Herbicidal ratio of 5% or less (almost no effect))	5 (Herbicidal ratio of 90% or more (almost completely withered))	5 (Herbicidal ratio of 90% or more (almost completely withered))	5 (Herbicidal ratio of 90% or more (almost completely withered))	4 (Herbicidal ratio of 70% or more and less than 90%)	5 (Herbicidal ratio of 90% or more (almost completely withered))	–	–	–	–
COc1cccc(-c2nnc3c(C(=O)Nc4nnc(C)o4)ccc(C(F)(F)F)n23)c1 [1-046]	5 (Herbicidal ratio of 90% or more (almost completely withered))	3 (Herbicidal ratio of 40% or more and less than 70%)	3 (Herbicidal ratio of 40% or more and less than 70%)	2 (Herbicidal ratio of 20% or more and less than 40%)	3 (Herbicidal ratio of 40% or more and less than 70%)	5 (Herbicidal ratio of 90% or more (almost completely withered))	3 (Herbicidal ratio of 40% or more and less than 70%)	3 (Herbicidal ratio of 40% or more and less than 70%)	4 (Herbicidal ratio of 70% or more and less than 90%)	–	–	–	–
Cc1nnc(NC(=O)c2ccc(C(F)(F)F)n3c(COCC(F)(F)F)nnc23)o1 [1-020]	4 (Herbicidal ratio of 70% or more and less than 90%)	2 (Herbicidal ratio of 20% or more and less than 40%)	3 (Herbicidal ratio of 40% or more and less than 70%)	0 (Herbicidal ratio of 5% or less (almost no effect))	4 (Herbicidal ratio of 70% or more and less than 90%)	5 (Herbicidal ratio of 90% or more (almost completely withered))	4 (Herbicidal ratio of 70% or more and less than 90%)	2 (Herbicidal ratio of 20% or more and less than 40%)	4 (Herbicidal ratio of 70% or more and less than 90%)	–	–	–	–
CCc1nnc(NC(=O)c2ccc(C(F)(F)F)n3c(C(C)C)nnc23)o1 [1-005]	5 (Herbicidal ratio of 90% or more (almost completely withered))	4 (Herbicidal ratio of 70% or more and less than 90%)	4 (Herbicidal ratio of 70% or more and less than 90%)	0 (Herbicidal ratio of 5% or less (almost no effect))	–	–	–	–	1 (Herbicidal ratio of 5% or more and less than 20%)	5 (Herbicidal ratio of 90% or more (almost completely withered))	2 (Herbicidal ratio of 20% or more and less than 40%)	5 (Herbicidal ratio of 90% or more (almost completely withered))	0 (Herbicidal ratio of 5% or less (almost no effect))
